According to patent US9611277B2 (Janssen Pharmaceutica NV, priority 2013, dated 2017):
Where two headings read alike, the source gives them in different places.

Legend:
rat orexin 1 receptor = rat orexin 1 receptor (Rattus norvegicus, UniProt P56718); assay: Rat orexin 1 receptor radioligand binding; conditions: read-out: rOX1 Ki
Experimental: (§1) Data are analyzed using pc-Sandy macro and graphed on Graphpad Prism 5. For analysis, each concentration point is averaged from triplicate values and the averaged values are plotted on Graphpad Prism. The IC50 was determined by applying the following equation (GraphPad Prism 5.0, SanDiego) for one site competition where X=log (concentration) and Y=specific binding. Top denotes the total [^3H]-(1-(5-(2-fluoro-phenyl)-2-methyl-thiazol-4-yl)-1-((S)-2-(5-phenyl-(1,3,4)oxadiazol-2-ylmethyl)-pyrrolidin-1-yl)-methanone) binding, bottom denotes the nonspecific [^3H]-(1-(5-(2-fluoro-phenyl)-2-methyl-thiazol-4-yl)-1-((S)-2-(5-phenyl-(1,3,4)oxadiazol-2-ylmethyl)-pyrrolidin-1-yl)-methanone) binding. Graphpad Prism calculates Ki value from IC50 and the pre-determined Kd values for [^3H]-(1-(5-(2-fluoro-phenyl)-2-methyl-thiazol-4-yl)-1-((S)-2-(5-phenyl-(1,3,4)oxadiazol-2-ylmethyl)-pyrrolidin-1-yl)-methanone) and [3H]-EMPA. The Ki for each compound is then uploaded into 3DX. Each run comprises individual compounds in triplicate. The data in Table 1 and Table 2 represent averages from between 2-20 runs
(§2) Rat and Human Orexin 1 Receptor Radioligand Binding Studies
(§3) After centrifugation (2K×G, 5 min at 4° C.), the supernatant was aspirated and the pellets frozen and stored at −80° C. […] Each cell pellet from a 15 cm plate was resuspended in 10 mL, stored on ice, and homogenized for 45 sec prior to addition to the reactions. […] The final concentration of DMSO in the reactions is equal to or less than 0.1%. Total and nonspecific binding was determined in the absence and presence of 10 μM almorexant. The total volume of each reaction is 200 μL (20 μL of diluted compounds, 80 μL of [^3H]-(1-(5-(2-fluoro-phenyl)-2-methyl-thiazol-4-yl)-1-((S)-2-(5-phenyl-(1,3,4)oxadiazol-2-ylmethyl)-pyrrolidin-1-yl)-methanone) diluted in PBS and 100 μL of the cell suspension). […] The plates were washed 3 times by aspirating 30 ml PBS through the plates. Plates were dried in 55° C. oven for 60 min, scintillation fluid was added, and the radioactivity was counted on a Topcount (Packard).

human orexin 1 receptor = human orexin 1 receptor (Homo sapiens, UniProt O43613); assay: Human orexin 1 receptor radioligand binding; conditions: read-out: hOX1 Ki
Experimental: as §1, §2, §3

human orexin 2 receptor = human orexin 2 receptor (Homo sapiens (Human), UniProt O43614); assay: Human orexin 2 receptor radioligand binding; conditions: read-out: hOX2 Ki
Experimental: as §1
Human Orexin 2 Receptor Radioligand Binding Studies
as §3, with “HEK293 stably expressing human orexin 2 receptor (Genebank accession number NM_001526) were grown to confluency in DMEM (Hyclone, cat # SH30022), 10% FBS, 1× Pen/Strep, 1× NaPyruvate, 10 mM HEPES, 600 ug/ml G418 media on 150 cm^2 tissue culture plates, washed with 5 mM EDTA in PBS (HyClone Dulbecco's Phosphate Buffered Saline 1× with Calcium and Magnesium, Cat # SH30264.01, hereafter referred to simply as PBS) and scraped into 50 ml tubes. After” for “After”, “sec just” for “sec”, “[^3H]-EMPA” for “[^3H]-(1-(5-(2-fluoro-phenyl)-2-methyl-thiazol-4-yl)-1-((S)-2-(5-phenyl-(1,3,4)oxadiazol-2-ylmethyl)-pyrrolidin-1-yl)-methanone)”

[1] = rat orexin 1 receptor, averages of 2-20 runs
[2] = human orexin 1 receptor, averages of 2-20 runs
[3] = human orexin 2 receptor, averages of 2-20 runs

human orexin 2 receptor, sequence (O43614 whole entry): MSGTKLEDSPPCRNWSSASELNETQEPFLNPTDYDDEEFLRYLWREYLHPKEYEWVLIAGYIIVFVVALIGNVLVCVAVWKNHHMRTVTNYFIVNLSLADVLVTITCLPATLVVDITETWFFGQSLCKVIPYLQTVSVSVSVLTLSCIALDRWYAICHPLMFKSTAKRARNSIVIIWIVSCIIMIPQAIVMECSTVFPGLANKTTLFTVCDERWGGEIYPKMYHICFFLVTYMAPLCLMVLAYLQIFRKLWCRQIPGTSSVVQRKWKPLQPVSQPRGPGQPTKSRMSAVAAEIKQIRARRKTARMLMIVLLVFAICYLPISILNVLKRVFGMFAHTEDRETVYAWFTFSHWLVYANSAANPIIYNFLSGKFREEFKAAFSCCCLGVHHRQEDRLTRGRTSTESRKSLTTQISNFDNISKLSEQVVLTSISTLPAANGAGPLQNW

SMILES	Ki (rat orexin 1 receptor; [1])	Ki (human orexin 1 receptor; [2])	Ki (human orexin 2 receptor; [3])	also measured
Cc1cccc(C(=O)N2C[C@H]3C[C@@H](Oc4ccc(C(F)(F)F)cn4)[C@@H]2C3)c1-c1ncco1 [Example 32, (3-methyl-2-(oxazol-2-yl)phenyl)((1S,4R,6R)-6-((5-(trifluoromethyl)pyridin-2-yl)oxy)-2-azabicyclo[2.2.1]heptan-2-yl)methanone]	–	6 nM	–	–
Cc1ccc(C(=O)N2C[C@H]3C[C@@H](Oc4ccc(C(F)(F)F)cn4)[C@@H]2C3)c(-n2ccnn2)n1 [Example 34, (6-methyl-2-(1H-1,2,3-triazol-1-yl)pyridin-3-yl)((1S,4R,6R)-6-((5-(trifluoromethyl)pyridin-2-yl)oxy)-2-azabicyclo[2.2.1]heptan-2-yl)methanone]	162 nM	368 nM	–	–
O=C(c1ccccc1-n1nccn1)N1C[C@H]2C[C@@H](Oc3ccc(C(F)(F)F)cn3)[C@@H]1C2 [Example 36, (2-(2H-1,2,3-triazol-2-yl)phenyl)((1S,4R,6R)-6-((5-(trifluoromethyl)pyridin-2-yl)oxy)-2-azabicyclo[2.2.1]heptan-2-yl)methanone]	–	13 nM	–	–
O=C(c1c(F)cccc1-c1ncccn1)N1C[C@H]2C[C@@H](Oc3ccc(Br)cn3)[C@@H]1C2 [Example 47, ((1S,4R,6R)-6-((5-bromopyridin-2-yl)oxy)-2-azabicyclo[2.2.1]heptan-2-yl)(2-fluoro-6-(pyrimidin-2-yl)phenyl)methanone]	6 nM	9 nM	–	–
O=C(c1ccccc1-n1nccn1)N1C[C@H]2C[C@@H](Nc3ccc(C(F)(F)F)cn3)[C@@H]1C2 [Example 53, (2-(2H-1,2,3-triazol-2-yl)phenyl)((1S,4S,6R)-6-((5-(trifluoromethyl)pyridin-2-yl)amino)-2-azabicyclo[2.2.1]heptan-2-yl)methanone]	–	4 nM	–	–
Cc1ccc(-n2nccn2)c(C(=O)N2C[C@H]3C[C@@H](Nc4ccc(C(F)(F)F)cn4)[C@@H]2C3)n1 [Example 54, (6-methyl-3-(2H-1,2,3-triazol-2-yl)pyridin-2-yl)((1S,4S,6R)-6-((5-(trifluoromethyl)pyridin-2-yl)amino)-2-azabicyclo[2.2.1]heptan-2-yl)methanone]	–	–	–	Ki (rat orexin 1 receptor): 6 nM; Ki (human orexin 1 receptor): 5 nM
Cc1ccc(-c2ncccn2)c(C(=O)N2C[C@H]3C[C@@H](Oc4ccc(C(F)(F)F)nn4)[C@@H]2C3)n1 [Example 142, (6-methyl-3-(pyrimidin-2-yl)pyridin-2-yl)((1S,4R,6R)-6-((6-(trifluoromethyl)pyridazin-3-yl)oxy)-2-azabicyclo[2.2.1]heptan-2-yl)methanone]	376 nM	–	7900 nM	–
O=C(c1ccccc1-n1nccn1)N1C[C@@H]2CC[C@H]1[C@H](Nc1cnc(C(F)(F)F)cn1)C2 [Example 275, (2-(2H-1,2,3-triazol-2-yl)phenyl)((1S,4R,6R)-6-((5-(trifluoromethyl)pyrazin-2-yl)amino)-2-azabicyclo[2.2.2]octan-2-yl)methanone]	–	–	–	Ki (rat orexin 1 receptor): 8 nM; Ki (human orexin 2 receptor): 175 nM

More lines, main results first:

Ki (rat orexin 1 receptor; [1])	Ki (human orexin 1 receptor; [2])	Ki (human orexin 2 receptor; [3])	SMILES	also measured
22 nM	24 nM	–	O=C(c1ccc(F)cc1-c1ncccn1)N1CC2CCC1C(Oc1ccc(C(F)(F)F)cn1)C2 (racemic) [Example 250, (R/S)-(4-fluoro-2-(pyrimidin-2-yl)phenyl)(6-((5-(trifluoromethyl)pyridin-2-yl)oxy)-2-azabicyclo[2.2.2]octan-2-yl)methanone]	–
18 nM	11 nM	–	O=C(c1ccccc1-c1ncc(F)cn1)N1CC2CCC1C(Oc1ccc(C(F)(F)F)cn1)C2 (racemic) [Example 251, (R/S)-(2-(5-fluoropyrimidin-2-yl)phenyl)(6-((5-(trifluoromethyl)pyridin-2-yl)oxy)-2-azabicyclo[2.2.2]octan-2-yl)methanone]	–
6 nM	–	351 nM	CN(c1ccc(C(F)(F)F)cn1)[C@@H]1C[C@H]2C[C@@H]1N(C(=O)c1cccc(F)c1-c1ncccn1)C2 [Example 157, (3-fluoro-2-(pyrimidin-2-yl)phenyl)((1S,4S,6R)-6-(methyl(5-(trifluoromethyl)pyridin-2-yl)amino)-2-azabicyclo[2.2.1]heptan-2-yl)methanone]	–
> 10000 nM	–	> 10000 nM	CC(=O)N(c1ccc(C(F)(F)F)cn1)[C@@H]1C[C@H]2C[C@@H]1N(C(=O)c1cccc(F)c1-c1ncccn1)C2 [Example 162, N-((1S,4R,6R)-2-(3-fluoro-2-(pyrimidin-2-yl)benzoyl)-2-azabicyclo[2.2.1]heptan-6-yl)-N-(5-(trifluoromethyl)pyridin-2-yl)acetamide]	–
8 nM	7 nM	–	O=C(c1cc(F)ccc1-c1ncccn1)N1C[C@H]2C[C@@H](Nc3ccc(Cl)cn3)[C@@H]1C2 [Example 172, ((1S,4S,6R)-6-((5-chloropyridin-2-yl)amino)-2-azabicyclo[2.2.1]heptan-2-yl)(5-fluoro-2-(pyrimidin-2-yl)phenyl)methanone]	–
2100 nM	–	3000 nM	COC(=O)c1cnc(N[C@@H]2C[C@H]3C[C@@H]2N(C(=O)c2ccccc2-n2nccn2)C3)cn1 [Example 221, methyl 5-(((1S,4S,6R)-2-(2-(2H-1,2,3-triazol-2-yl)benzoyl)-2-azabicyclo[2.2.1]heptan-6-yl)amino)pyrazine-2-carboxylate]	–
261 nM	–	> 10000 nM	O=C(c1cccnc1-n1nccn1)N1C[C@H]2C[C@@H](Nc3ncc(C(F)(F)F)cn3)[C@@H]1C2 [Example 222, (2-(2H-1,2,3-triazol-2-yl)pyridin-3-yl)((1S,4S,6R)-6-((5-(trifluoromethyl)pyrimidin-2-yl)amino)-2-azabicyclo[2.2.1]heptan-2-yl)methanone]	–
280 nM	–	1100 nM	CCOc1ccc(C)nc1C(=O)N1C[C@H]2C[C@@H](Nc3ncc(C(F)(F)F)cn3)[C@@H]1C2 [Example 233, (3-ethoxy-6-methylpyridin-2-yl)((1S,4S,6R)-6-((5-(trifluoromethyl)pyrimidin-2-yl)amino)-2-azabicyclo[2.2.1]heptan-2-yl)methanone]	–
16 nM	19 nM	–	O=C(c1ccc(F)cc1-c1ncccn1)N1C[C@@H]2CC[C@H]1[C@H](Oc1ccc(C(F)(F)F)cn1)C2 [Example 259, (4-fluoro-2-(pyrimidin-2-yl)phenyl)((1S,4R,6R)-6-((5-(trifluoromethyl)pyridin-2-yl)oxy)-2-azabicyclo[2.2.2]octan-2-yl)methanone]	–
10 nM	10 nM	–	O=C(c1ccccc1-c1ncc(F)cn1)N1C[C@@H]2CC[C@H]1[C@H](Oc1ccc(C(F)(F)F)cn1)C2 [Example 262, (2-(5-fluoropyrimidin-2-yl)phenyl)((1S,4R,6R)-6-((5-(trifluoromethyl)pyridin-2-yl)oxy)-2-azabicyclo[2.2.2]octan-2-yl)methanone]	–
2700 nM	–	> 10000 nM	O=C(c1cccc(F)c1-c1ncccn1)N1C[C@H]2CC[C@@H]1[C@@H](Nc1cnc(C(F)(F)F)cn1)C2 [Example 276, (3-fluoro-2-(pyrimidin-2-yl)phenyl)((1R,4S,6S)-6-((5-(trifluoromethyl)pyrazin-2-yl)amino)-2-azabicyclo[2.2.2]octan-2-yl)methanone]	–
822 nM	–	3100 nM	Cc1ccc(-n2nccn2)c(C(=O)N2C[C@H]3C[C@@H](Oc4ccc5cccnc5n4)[C@@H]2C3)n1 [Example 286, ((1S,4R,6R)-6-((1,8-naphthyridin-2-yl)oxy)-2-azabicyclo[2.2.1]heptan-2-yl)(6-methyl-3-(2H-1,2,3-triazol-2-yl)pyridin-2-yl)methanone]	–
